# Assay results as given in patent publication US9220706B2, “Inhibition of leukemic stem cells by PP2A activating agents” (Ohio State Innovation Foundation, priority 2012, dated 2015).
# Assays:
# [1] = tested on: human CML CD34^+ BM cells in NSG mice; type: in vivo
# Text: Engraftment of Human Normal and CML Cells in Immnunodeficient NSG Mice and Effect of FTY720 on Leukemic and Normal Hematopoietic Stem/Progenitor Cells. CD34+ cells were isolated from BM of CML patients (n=3) or from umbilical cord blood specimens (UCB; n=3). Note that CML samples were from patients in blastic transformation with ≧75% of Ph+ blasts. Sublethally irradiated (260 rads) 6-8 week-old NOD.Cg-Prkds^scid IL2rg^tm1WjI/SzJ (NSG, Jackson Laboratory) mice were intrafemorally injected with 1-3×10^6 CML or 10^5 UCB CD34^+ cells/mouse. The engraftment was assessed 8 weeks post-transplant by anti-human CD45 (BD Biosciences) and anti-mouse CD45.1 flow staining of intrafemoral BM aspirates and PB from tail vein. Wunderlich et al., Leukemia 24, 1785-1788 (2010). CML- and UCB-engrafted NSG mice were treated for 8 weeks (8-10 mice/group) with either FTY720 (10 mg/kg/day; i.p.) or PBS. Disease evolution and effect of FTY720 on HSC-enriched cell fraction (CD45^+/CD34^+/CD38^−), primitive progenitors (CD45+/CD34+), myeloid (CD45^+/CD34^+/CD33^+), B-cell (CD45^+/CD19^+) and T-cell (CD45^+/CD3^+) compartments were determined before and after 4/8 weeks of FTY720 treatment by FACS-mediated analysis of BM aspirates and/or PB cells. BCR-ABL1 transcript levels were monitored by qRT-PCR-mediated (Ipsogen) analysis of BCR-ABL1/human Abl1 ratios in total RNA samples derived from BM-aspirates of CML-engrafted animals at time of engraftment (time 0) and after 8 weeks of FTY720 treatment. […] These studies were performed by IRB and IACUC approved protocols.
# Fluorescent in situ hybridization (FISH). Human CD45+ cells from intrafemoral BM aspirates of untreated and 8 weeks FTY720-treated NSG mice engrafted with CD34+ CML-BC and UCB cells, were FACS-isolated, dropped onto microscope slides, and fixed in a solution of three parts methanol and one part acetic acid. A triple color, dual fusion BCR/ABL1 FISH probe was applied according to the manufacturer's instructions (Kreatech Diagnostics). Hybridized slides were counterstained with DAPI and visualized under an Olympus BX41 microscope. Images were captured using a Hammamatsu Orca II CCD camera and SmartCapture X software (Digital Scientific).
# BCR-ABL1^+ cells = experiment: Intracellular phosphorylation of FTY720; type: cell-based
# [2] = tested on: GFP+ leukemic LSK and LT-HSC from SCLtTA/BCR-ABL1/GFP mice; experiment: BM serial transplantation, transgenic BCR-ABL1 mice; type: in vivo, mouse
# Protocol: BM Serial Transplantation Assays and In Vivo Effect of FTY720 on LT-HSCs from Transgenic BCR-ABL1 Mice. 2×10^6 GFP+ BM or 3×10^3 GFP+ BM-derived LSK (Lin^−/Sca-1^+/Kit^+) cells from 4-week induced leukemic SCLtTA/BCR-ABL1/GFP mice were transplanted into lethally-irradiated FVB/N mice. After the onset of neutrophilia (4 weeks post-transplant), mice were FTY720- (10 mg/kg/day, i.p.) or vehicle-treated for 4 weeks. The number of total GFP+ cells and GFP+ long-term (LT)-HSCs (Lin^−/Sca-1^+/Kit^+/FLt3^−/CD150^+/CD48^−) was measured with a LSRII flow cytometer. BM cells (2×10^6, 1×10^6 and 0.5×10^6) from treated and untreated animals (8 mice/group) mixed with 2×10^5 FVB/N BM cells were transplanted into lethally-irradiated secondary recipients. Engraftment (GFP^+ in PB>0.1%) was monitored every 4 weeks, and LT-HSC frequency was determined 16 weeks after secondary transplant using Poisson statistics. All animal studies were IACUC approved.
# BCR-ABL1 = experiment: Intracellular flow staining of active BCR-ABL1 (pABL); type: cell-based, human
# Protocol: Flow cytontetric analysis and sorting of HSCs. Primary CD34^+ cells were isolated by magnetic cell sorting (CD34 MultiSort; Miltenyi Biotec) and kept in IMDM supplemented with 30% FBS, 2 mM Lglutamine, rhIL-3 (20 ng/ml), rhIL-6 (20 ng/ml), rhFlt-3 ligand (100 ng/ml), and rhKL (100 ng/ml) (Stem Cell Technologies). The CD34+ fraction derived from the BM of healthy donors and the PB or BM from CML patients was stained with anti-CD34 FITC or PE, and anti-CD38 PE-Cy7 (BD Biosciences). The Lin− fraction of murine mononuclear cells was stained with anti-Sca-1 PeCy7 (BD Biosciences) and anti-c-kit APC-AlexaFluor750 (eBioscience), The CD34^+/CD38^− or the Lin−/Sca-1+/c-Kit+ (LSK) fractions were sorted by fluorescence-activated cell sorting with a FACS Aria II instrument (BD Biosciences). […]
# [3] = BM of NSG mice, 4 and 8 weeks FTY720 10 mg/kg/day i.p.
# [4] = FTY720 10 mg/kg/day i.p., 4-week treatment
compound,measurement,setting,value
CCCCCCCCc1ccc(CCC(N)(CO)CO)cc1 [FTY720],BCR-ABL1 transcripts (BCR-ABL1/hAbl1),[1]; BM aspirates of FTY720-treated CML-engrafted mice,significant decrease
same,reduction in CD45^+/CD34^+ progenitors,[1]; [3],~85%
same,reduction in CD45^+/CD34^+/CD38^− HSCs,[1]; [3],~97%
same,reduction in total hCD45^+ cells,[1]; [3],~83%
same,Ph^+ hCD45^+/CD33^+ myeloid cells,[1]; CML-engrafted NSG mice,also reduced
same,adverse effects or changes in animal behavior,"[1]; mouse, in vivo, ip, 10 mg/kg/day",have not been noted
same,intracellular FTY720 remaining unphosphorylated,BCR-ABL1^+ cells,more than 90%
same,secondary recipients with leukemic engraftment,"[2]; BM from treated mice, Table I Exp 1",25%
same,Engraftment-positive at 16 weeks (>0.1% GFP+),"[2]; Experiment #1, cell dose in 2nd recipients 2,000,000",2/8
same,LT-HSC frequency,"[2]; Experiment #2, Poisson statistics, 16 weeks after secondary transplant",0.45 × 10^−6
same,Engraftment-positive at 16 weeks (>0.1% GFP+),"[2]; Experiment #2, cell dose in 2nd recipients 500,000",0/8
same,Engraftment-positive at 16 weeks (>0.1% GFP+),"[2]; Experiment #2, cell dose in 2nd recipients 1,000,000",3/7
same,Engraftment-positive at 16 weeks (>0.1% GFP+),"[2]; Experiment #2, cell dose in 2nd recipients 2,000,000",5/7
same,reduction of GFP^+ (leukemic) LSK,[2]; [4],≥ 50%
same,reduction of splenic and/or BM GFP^+ LT-HSC,[2]; [4],≥ 70%
same,reduction of frequency of leukemic LT-HSCs,"[2]; limiting dilution analysis, Table I Exp. 2",~80%
same,inhibition of BCR-ABL1 activity (pABL levels),BCR-ABL1; bulk CD34 CML cells,occurred in the bulk
same,inhibition of BCR-ABL1 activity (pABL levels),BCR-ABL1; quiescent fraction (CFSE^max) of CD34 CML cells,not in the quiescent fraction
